Patent US9968098B2, “Synergistic Bacillus thuringiensis subsp. aizawai, Bacillus thuringiensis subsp. kurstaki and cyantraniliprole mixtures for diamondback moth, beet armyworm, southwestern corn borer, and corn earworm” (Valent BioSciences LLC, priority 2016, dated 2018)
Like-named read-outs stand apart in the source and are kept apart here.

Assays:
[1] = tested on: beet armyworm larvae; test: Leaf dip test, beet armyworm larvae; format: in vivo; conditions: Spodoptera exigua, foliar, Bta/Btk 0.8125 ppm, cyantraniliprole 1.0 ppm, mixture 0.8125 ppm + 1.0 ppm (Ratio 1:1.23), read-out: % Efficacy
Procedure: (§1) Sympatico™ emulsifiable suspension (available from Valent BioSciences LLC) was used as the source of Bacillus thuringiensis subsp. aizawai and Bacillus thuringiensis kurstaki. Sympatico™ contains about a 1:0.67 ratio of Bacillus thuringiensis subsp. kurstaki fermentation solids, spores and toxins to Bacillus thuringiensis subsp. aizawai fermentation solids, spores and toxins. Belt® was used as the source of cyantraniliprole. […] In each example below, the studies were conducted as follows.
(§2) For these tests, standardized laboratory leaf dip methods were used to inoculate plant material with treatment(s). Dry, treated leaves were placed into Petri dishes (100×25 mm) containing filter paper wetted with 500 μl of distilled H2O (“dH2O”). Each dish was then infested with between 5 and 10 larvae, dependent on species. Efficacy ratings were taken at specified intervals. Synergy ratings were calculated for each test.
(§3) % Cexp=A+B−(AB/100), where % Cexp is the expected efficacy and “in which A and B are the control levels given by the single [insecticides].
Bacillus thuringiensis subsp. aizawai/Bacillus thuringiensis subsp. kurstaki was applied at a concentration of 0.8125 ppm (0.8125 μg/ml). Cyantraniliprole was applied at a concentration of 1.0 ppm (1.0 μg/ml). […]

[2] = tested on: sugarcane borer larvae; test: Leaf dip test, sugarcane borer larvae; format: in vivo; conditions: Diatraea saccharalis, foliar, Bta/Btk 0.8125 ppm, cyantraniliprole 1.0 ppm, mixture 0.8125 ppm + 1.0 ppm (Ratio 1:1.23), read-out: % Efficacy
Excerpt: (§4) The following examples were used to determine the synergy of Bacillus thuringiensis subsp. aizawai, Bacillus thuringiensis subsp. kurstaki and cyantraniliprole when controlling diamondback moth, beet armyworm, sugarcane borer, soybean looper, corn earworm, cabbage looper, and southwestern corn borer. Sympatico™ emulsifiable suspension (available from Valent BioSciences LLC) was used as the source of Bacillus thuringiensis subsp. aizawai and Bacillus thuringiensis kurstaki. Sympatico™ contains about a 1:0.67 ratio of Bacillus thuringiensis subsp. kurstaki fermentation solids, spores and toxins to Bacillus thuringiensis subsp. aizawai fermentation solids, spores and toxins. Belt® was used as the source of cyantraniliprole. […] In each example below, the studies were conducted as follows.
as §2
(§5) % Cexp=A+B−(AB/100), where % Cexp is the expected efficacy and “in which A and B are the control levels given by the single [insecticides]. […]

[3] = tested on: diamondback moth larvae; test: Leaf dip test, diamondback moth larvae; format: in vivo; conditions: Plutella xylostella, foliar, Bta/Btk 0.8125 ppm, cyantraniliprole 0.12 ppm, mixture 0.8125 ppm + 0.12 ppm (Ratio 1:0.12), read-out: % Efficacy
Excerpt: The following examples were used to determine the synergy of Bacillus thuringiensis subsp. aizawai, Bacillus thuringiensis subsp. kurstaki and cyantraniliprole when controlling diamondback moth, beet armyworm, sugarcane borer, soybean looper, corn earworm, cabbage looper, and southwestern corn borer. Sympatico™ emulsifiable suspension (available from Valent BioSciences LLC) was used as the source of Bacillus thuringiensis subsp. aizawai and Bacillus thuringiensis kurstaki. Sympatico™ contains about a 1:0.67 ratio of Bacillus thuringiensis subsp. kurstaki fermentation solids, spores and toxins to Bacillus thuringiensis subsp. aizawai fermentation solids, spores and toxins. Belt® was used as the source of cyantraniliprole. The present invention is not limited to the commercial products used in the examples. […]
For these tests, standardized laboratory leaf dip methods were used to inoculate plant material with treatment(s). […] Synergy ratings were calculated for each test. […]
In order to determine synergy, rates below normal field rate ranges must be used. If normal field rate ranges are used, all of the larvae would die (combining a lethal or near lethal dose of Bacillus thuringiensis subsp. aizawai and Bacillus thuringiensis subsp. kurstaki with a lethal dose of cyantraniliprole would most likely lead to larvae death) in every treatment and synergy would not be able to be determined. […]

[4] = tested on: soybean looper larvae; test: Leaf dip test, soybean looper larvae; format: in vivo, Chrysodeixis includens; conditions: foliar, Bta/Btk 0.26 ppm, cyantraniliprole 1.0 ppm, mixture 0.26 ppm + 1.0 ppm (Ratio 1:15), read-out: % Efficacy
Procedure: Belt® was used as the source of cyantraniliprole. […] In each example below, the studies were conducted as follows.
as §2, §3
In this study, the response of soybean looper larvae to Bacillus thuringiensis subsp. aizawai, Bacillus thuringiensis subsp. kurstaki and cyantraniliprole was observed.
Bacillus thuringiensis subsp. aizawai/Bacillus thuringiensis subsp. kurstaki was applied at a concentration of 0.26 ppm (0.26 μg/ml). Cyantraniliprole was applied at a concentration of 1.0 ppm (1.0 μg/ml). The Bacillus thuringiensis subsp. aizawai/Bacillus thuringiensis kurstaki/cyantraniliprole mixture was applied at a concentration of 0.26 ppm Bacillus thuringiensis subsp. aizawai/Bacillus thuringiensis subsp. kurstaki and 1.0 ppm cyantraniliprole.

[5] = tested on: southwestern corn borer larvae; test: Leaf dip test, southwestern corn borer larvae; format: in vivo, Diatraea grandiosella; conditions: foliar, Bta/Btk 0.8125 ppm, cyantraniliprole 0.1 ppm, mixture 0.8125 ppm + 0.1 ppm (Ratio 1:0.12), read-out: % Efficacy
Excerpt: as §4, §2, §5

[6] = tested on: corn earworm larvae; test: Leaf dip test, corn earworm larvae; format: in vivo; conditions: Helicoverpa zea, foliar, Bta/Btk 2.6 ppm, cyantraniliprole 10.0 ppm, mixture 2.6 ppm + 10.0 ppm (Ratio 1:3.85), read-out: % Efficacy
Procedure: In each example below, the studies were conducted as follows.
as §2
% Cexp=A+B−(AB/100), where % Cexp is the expected efficacy and “in which A and B are the control levels given by the single [insecticides]. […] Adopting a conservative approach, Applicant will determine if synergy is present at ratios of ≥1.15.
In this study, the response of corn earworm larvae to amounts of Bacillus thuringiensis subsp. aizawai, Bacillus thuringiensis subsp. kurstaki and cyantraniliprole was observed.
Bacillus thuringiensis subsp. aizawai/Bacillus thuringiensis subsp. kurstaki was applied at a concentration of 2.6 ppm (2.6 μg/ml). Cyantraniliprole was applied at a concentration of 10.0 ppm (10.0 μg/ml). The Bacillus thuringiensis subsp. aizawai/Bacillus thuringiensis kurstaki/cyantraniliprole mixture was applied at a concentration of 2.6 ppm Bacillus thuringiensis subsp. kurstaki/Bacillus thuringiensis subsp. aizawai and 10.0 ppm cyantraniliprole.

[7] = tested on: cabbage looper larvae; test: Leaf dip test, cabbage looper larvae; format: in vivo; conditions: Trichoplusia ni, foliar, Bta/Btk 0.8125 ppm, cyantraniliprole 0.50 ppm, mixture 0.8125 ppm + 0.50 ppm (Ratio 1:0.62), read-out: % Efficacy
Procedure: as §1, §2, §3
In this study, the response of cabbage looper larvae to amounts of Bacillus thuringiensis subsp. aizawai, Bacillus thuringiensis subsp. kurstaki and cyantraniliprole was observed.
Bacillus thuringiensis subsp. aizawai/Bacillus thuringiensis subsp. kurstaki was applied at a concentration of 0.8125 ppm (0.8125 μg/ml). […]

Molecule `CNC(=O)c1cc(C#N)cc(C)c1NC(=O)c1cc(Br)nn1-c1ncccc1Cl` [Cyantraniliprole, 3-Bromo-1-(3-chloro-2-pyridinyl)-N-[4-cyano-2-methyl-6-(methylcarbamoyl)phenyl]-1H-pyrazole-5-carboxamide] has an Emax at 1 ppm ([1]; 24 h after treatment) of 20%, an Emax at 1 ppm ([1]; 48 h after treatment) of 35% and an Emax at 1 ppm ([2]; 24 h after treatment) of 24%. It also gave an Emax at 1 ppm ([2]; 48 h after treatment) of 35%, an Emax at 0.12 ppm ([3]; 24 h after treatment) of 29% and an Emax at 0.12 ppm ([3]; 48 h after treatment) of 52%. It also gave an Emax at 1 ppm ([4]; 24 h after treatment) of 12%, an Emax at 1 ppm ([4]; 48 h after treatment) of 41% and an Emax at 0.1 ppm ([5]; 24 h after treatment) of 15%. For the same molecule, the Emax at 0.1 ppm ([5]; 48 h after treatment) was 32%, the Emax at 10 ppm ([6]; 24 h after treatment) was 44% and the Emax at 10 ppm ([6]; 48 h after treatment) was 60%. For the same molecule, the Emax at 0.5 ppm ([7]; 24 h after treatment) was 18% and the Emax at 0.5 ppm ([7]; 48 h after treatment) was 40%.
